The values below come from patent US20210221848A1, “POLYMYXIN DERIVATIVES AND THEIR USE IN COMBINATION THERAPY TOGETHER WITH DIFFERENT ANTIBIOTICS” (priority 2014, published 2021).

Experiment [1] deals with E. coli strains with elevated MICs to Polymyxin B. Put plainly: MIC against strains with elevated MICs to Polymyxin B. Format: cell-based, Escherichia coli. Particulars: Table 6D; for MIC E. coli 059: strain 059, elevated MIC to Polymyxin B; for MIC E. coli 060: strain 060, elevated MIC to Polymyxin B; for MIC E. coli 061: strain 061, elevated MIC to Polymyxin B; for MIC E. coli 058: strain 058, elevated MIC to Polymyxin B. As for the experimental part: (§1) The inoculum was prepared by making a direct suspension of isolated colonies (selected from an 18-24 hour Mueller-Hinton agar plate) adjusted to the 0.5 McFarland standard. […] The assays were performed in duplicate. […] In cases where the duplicate values varied by less than 2-fold, the lower of the two values is reported. If a variation of greater than 2-fold was observed, the assay was considered non-valid. Several of the compounds were subjected to multiple tests, and where this is the case, the MIC reflects the modal value obtained.
(§2) The Further Synthesis Examples were tested against a range of Gram negative bacteria, and tested for HK-2 cell toxicity. All the worked examples, including the Synthesis and Further Synthesis Examples, were also tested against a range of Gram negative bacteria that are resistant to Polymyxin B (i.e. those strains where Polymyxin B has an elevated MIC value).

Experiment [2] relates to P. aeruginosa strains with elevated MICs to Polymyxin B. Nature of the experiment: MIC against strains with elevated MICs to Polymyxin B. The conditions noted are these: Table 6D; for MIC P. aeruginosa 066: strain 066, elevated MIC to Polymyxin B; for MIC P. aeruginosa 067: strain 067, elevated MIC to Polymyxin B; for MIC P. aeruginosa 065: strain 065, elevated MIC to Polymyxin B. Type of experiment: cell-based, Pseudomonas aeruginosa. As for the experimental part:
as §1, §2

Experiment [3] concerns A. baumanii strains with elevated MICs to Polymyxin B. The experiment is described as above. Type of experiment: cell-based, Acinetobacter baumannii. The conditions noted are these: Table 6D; for MIC A. baumannii 053: strain 053, elevated MIC to Polymyxin B; for MIC A. baumannii 056: strain 056, elevated MIC to Polymyxin B; for MIC A. baumannii 068: strain 068, elevated MIC to Polymyxin B; for MIC A. baumannii 070: strain 070, elevated MIC to Polymyxin B. On the procedure:
as §1, §2

The test system of experiment [4] is K. pneumoniae strains with elevated MICs to Polymyxin B. Nature of the experiment: MIC against strains with elevated MICs to Polymyxin B. Format: cell-based, Klebsiella pneumoniae. The conditions noted are these: Table 6D; for MIC K. pneumoniae 062: strain 062, elevated MIC to Polymyxin B; for MIC K. pneumoniae 063: strain 063, elevated MIC to Polymyxin B; for MIC K. pneumoniae 064: strain 064, elevated MIC to Polymyxin B; for MIC K. pneumoniae 655: strain 655, elevated MIC to Polymyxin B. On the procedure: as §1, §2

Setting [5] is: absence of a second agent, Table 6B.

Read-outs that look alike come from different tables or passages of the source.

Take “3-aminomethyl- undecanoyl polymyxin B nonapeptide [Example D32]”: in experiment [1], the “MIC E. coli 059” value is reported as 1 micrograms/mL, the “MIC E. coli 060” value was determined as 2 micrograms/mL and the “MIC E. coli 061” value was found to be 8 micrograms/mL. Also, in the experiment on A. baumannii (setting [5]), the “MIC, A. baumannii ATCC BAA-747” value is on record as 2 micrograms/mL and the “MIC, A. baumannii NCTC 13424” value is given as 1 micrograms/mL. For the same substance, in the experiment with P. aeruginosa (setting [5]), the “MIC, P. aeruginosa ATCC 27853” value is 0.5 micrograms/mL and the “MIC, P. aeruginosa CCUG 59347” value was determined as 1 micrograms/mL. Moreover, in experiment [2], the “MIC P. aeruginosa 066” value was 4 micrograms/mL and the “MIC P. aeruginosa 067” value worked out at 32 micrograms/mL. In experiment [3], the “MIC A. baumannii 053” value was 32 micrograms/mL, the “MIC A. baumannii 056” value is given as 8 micrograms/mL, the “MIC A. baumannii 068” value stood at 4 micrograms/mL and the “MIC A. baumannii 070” value is recorded as 8 micrograms/mL. For the same substance, in the experiment with E. coli (setting [5]), the “MIC, E. coli ATCC 25922” value was 1 micrograms/mL and the “MIC, E. coli NCTC 13441” value worked out at 1 micrograms/mL. In the experiment with K. pneumoniae (setting [5]), the “MIC, K. pneumoniae ATCC 4352” value worked out at 1 micrograms/mL. Further, in experiment [4], the “MIC K. pneumoniae 062” value is 8 micrograms/mL, the “MIC K. pneumoniae 063” value was determined as 32 micrograms/mL, the “MIC K. pneumoniae 064” value was determined as 2 micrograms/mL and the “MIC K. pneumoniae 655” value came out at 32 micrograms/mL.

On to “5- (isobutoxy)piperi- dine-3-carbonyl Polymyxin B nonapeptide [Example D63]”, for which, in experiment [1], the “MIC E. coli 058” value stood at 16 micrograms/mL and the “MIC E. coli 061” value is 32 micrograms/mL. Further, in the experiment on A. baumannii (sole activity, Table 6C), the “MIC, A. baumannii ATCC BAA-747” value is 0.25 micrograms/mL and the “MIC, A. baumannii NCTC 13424” value is 0.25 micrograms/mL. In the experiment with P. aeruginosa (sole activity, Table 6C), the “MIC, P. aeruginosa ATCC 27853” value came out at 0.5 micrograms/mL and the “MIC, P. aeruginosa CCUG 59347” value turned out to be 0.5 micrograms/mL. In experiment [2], the “MIC P. aeruginosa 065” value is reported as 4 micrograms/mL, the “MIC P. aeruginosa 066” value is given as 32 micrograms/mL and the “MIC P. aeruginosa 067” value is given as more than 256 micrograms/mL. For the same substance, the “MIC A. baumannii 056” value in experiment [3] amounted to 128 micrograms/mL. In the experiment with E. coli (sole activity, Table 6C), the “MIC, E. coli ATCC 25922” value is recorded as 0.06 micrograms/mL and the “MIC, E. coli NCTC 13441” value stood at 0.125 micrograms/mL. In addition, in the experiment on K. pneumoniae (sole activity, Table 6C), the “MIC, K. pneumoniae ATCC 4352” value is on record as 0.125 micrograms/mL. Moreover, in the experiment with K. pneumoniae (K. pneumoniae ATCC BAA-2146, sole activity, Table 6C), the “MIC, K. pneumoniae ATCC BAA-2146” value is 0.125 micrograms/mL. Moreover, in experiment [4], the “MIC K. pneumoniae 062” value amounted to 128 micrograms/mL and the “MIC K. pneumoniae 064” value came out at 4 micrograms/mL.

Consider “3-aminomethyl- undecanoyl L- Thr-L-Dap- polymyxin B heptapeptide [Example D92]”, for which, in experiment [1], the “MIC E. coli 058” value was 0.5 micrograms/mL, the “MIC E. coli 059” value is on record as 0.5 micrograms/mL, the “MIC E. coli 060” value worked out at 1 micrograms/mL and the “MIC E. coli 061” value turned out to be 4 micrograms/mL. In addition, in the experiment with A. baumannii (sole activity, Table 6C), the “MIC, A. baumannii ATCC BAA-747” value is reported as 0.5 micrograms/mL and the “MIC, A. baumannii NCTC 13424” value is listed as 0.25 micrograms/mL. For the same substance, in the experiment with P. aeruginosa (sole activity, Table 6C), the “MIC, P. aeruginosa ATCC 27853” value was 0.25 micrograms/mL and the “MIC, P. aeruginosa CCUG 59347” value is listed as 0.5 micrograms/mL. Also, in experiment [2], the “MIC P. aeruginosa 065” value came to 0.5 micrograms/mL, the “MIC P. aeruginosa 066” value stood at 1 micrograms/mL and the “MIC P. aeruginosa 067” value amounted to 8 micrograms/mL. Further, in experiment [3], the “MIC A. baumannii 053” value is recorded as 8 micrograms/mL, the “MIC A. baumannii 056” value was found to be 4 micrograms/mL, the “MIC A. baumannii 068” value was 1 micrograms/mL and the “MIC A. baumannii 070” value worked out at 1 micrograms/mL. For the same substance, in the experiment with E. coli (sole activity, Table 6C), the “MIC, E. coli ATCC 25922” value amounted to 0.5 micrograms/mL. In the experiment with K. pneumoniae (sole activity, Table 6C), the “MIC, K. pneumoniae ATCC 4352” value amounted to 0.25 micrograms/mL. Also, in experiment [4], the “MIC K. pneumoniae 062” value was 2 micrograms/mL, the “MIC K. pneumoniae 063” value was found to be 8 micrograms/mL, the “MIC K. pneumoniae 064” value came to 2 micrograms/mL and the “MIC K. pneumoniae 655” value is on record as 4 micrograms/mL.
